Measurements taken from patent publication US20090233999A1, “COMPOSITIONS AND THERAPEUTIC METHODS INVOLVING ISOFLAVONES AND ANALOGUES THEREOF” (NOVOGEN RESEARCH PTY LTD, priority 1999, published 2009).

How the values were obtained:
[1] = tested on: COX (PGE2 and TXB2 synthesis); test: LPS-induced prostanoid (PGE2, TXB2) synthesis in human monocytes; type: cell-based; conditions: LPS 200 ng/mL, 18 hrs, data at 10 μM
Protocol: Human peripheral blood monocytes were isolated from buffy coats by lymphoprep gradient separation followed by counter-current centrifugal elutriation. Test compounds were dissolved in DMSO and added to fresh monocytes to achieve concentrations of 0, 10 and 100 μM. After 30 min, lipopolysaccharide (LPS) was added to achieve a final concentration of 200 ng/mL. After incubation for 18 hrs at 37° C. in 5% CO2, supernatants were removed and PGE2 and TXB2 (the stable hydrolysis product of TXA2) production were measured by radioimmunoassay (RIA). ANOVA followed by Newman-Keuls multiple comparisons test was used to examine differences between doses and the control values.

[2] = tested on: BALB/c mice (AA-induced ear swelling); conditions: regardless of route of administration; cited from earlier work
[3] = target: T1, ER beta receptor (Homo sapiens, UniProt Q92731); test: Estrogen Receptor Beta Competitor Assay Core HTS Kit (Panvera); conditions: competitive binding; kind of quantity not given; read-out: binding affinity, ER beta receptor
T1 construct: purchased Panvera Corporation P2614/2615
T1 sequence (Q92731 whole entry): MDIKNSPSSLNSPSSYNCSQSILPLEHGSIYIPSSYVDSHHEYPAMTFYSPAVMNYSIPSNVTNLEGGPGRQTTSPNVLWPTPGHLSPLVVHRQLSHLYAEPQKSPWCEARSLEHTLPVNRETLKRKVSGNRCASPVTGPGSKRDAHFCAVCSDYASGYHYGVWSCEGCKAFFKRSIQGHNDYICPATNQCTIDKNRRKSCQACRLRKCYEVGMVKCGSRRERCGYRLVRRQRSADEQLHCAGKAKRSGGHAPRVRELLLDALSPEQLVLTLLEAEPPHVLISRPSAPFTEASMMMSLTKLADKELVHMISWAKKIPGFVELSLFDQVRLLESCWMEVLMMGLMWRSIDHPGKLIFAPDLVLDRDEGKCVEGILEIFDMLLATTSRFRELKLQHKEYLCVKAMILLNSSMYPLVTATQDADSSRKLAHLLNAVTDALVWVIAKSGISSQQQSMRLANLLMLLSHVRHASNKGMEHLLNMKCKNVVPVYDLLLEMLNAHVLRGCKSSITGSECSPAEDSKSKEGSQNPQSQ
Protocol: The binding affinity of various compounds of the invention for both subtypes of the estrogen receptor was determined with the “Estrogen Receptor Alpha or Beta Competitor Assay Core HTS Kit” supplied by Panvera Corporation (Product No. P2614/2615).

[4] = tested on: rat aortic ring; test: Rat aortic ring assay, contractile response to noradrenaline; conditions: 1 μg/ml
Protocol: The vasodilatory capacity was examined ex vivo using the rat aortic ring assay.
Male Sprague-Dawley rats (250±50 g) were euthanased with 80% CO2 and 20% O2. The thoracic aorta was excised and quickly mounted in organ-baths as described. Full concentration-contractile curves were obtained to noradrenaline (0.1 nM-[…]) with and without test compounds delivered at a concentration of 1 μg/ml. Experiments were repeated in n=5 different rings from 5 different animals. Only one compound at any one concentration was tested on any one ring from any one animal. Sigmoidal dose response curves were fitted for the data and the logEC50 and the Ema, calculated (Prism 4, GraphPad Software). The difference in these values between the presence and absence of test compound was calculated using a two-tailed paired t test. The effects of β-oestrodiol and vehicle alone were examined as a positive and negative control respectively.

[5] = DPPH free radical scavenging
Protocol: The antioxidant (free radical trapping) activity of test compounds was assessed using the stable free radical compound 2,2-diphenyl-1-picrylhydrazyl (DPPH). A stock solution of DPPH was prepared at a concentration of 0.1 mM in ethanol and mixed for 10 minutes prior to use. Test compounds at a concentration of 100 μM were reacted with DPPH for 20 minutes, after which time the absorbance at 517 nm was determined and the change in absorbance compared to a reagent blank (DPPH with ethanol alone). A dose response curve was produced for those compounds with free radical scavenging activity (ΔAbs>0.3) at 100 μM. The IC50 value was estimated as the concentration of test compound that caused a 0.6 change in absorbance (with 1.2 absorbance units representing total scavenging of the DPPH radical).

Structure (SMILES) | AA-induced oedema [2] | melting point | also measured
Cc1c(O)ccc2c1OCC(c1ccccc1)=C2 [Cpd. 17, 7-Hydroxy-8-methylisoflav-3-ene] |  |  | COX inhibitory activity (inhibition of PGE2 and TXA2 production) [1]: significant COX inhibitory activity
COc1ccc2c(c1)c(CC(=O)O)c(C)n2C(=O)c1ccc(Cl)cc1 [indomethacin] | does inhibit |  | 
CC(=O)Oc1ccc(-c2coc3cc(OC(C)=O)cc(C)c3c2=O)cc1 [Example 5, 4′,7-Diacetoxy-5-methylisoflavone] |  | 195 to 197 °C | 
CC(=O)Oc1ccc(C2COc3cc(OC(C)=O)cc(C)c3C2=O)cc1 (stereo not shown) [Example 6, 4′,7-Diacetoxy-5-methylisoflavan-4-one] |  | 143 to 145 °C | 
O=C1c2cc(Cl)c(O)cc2OCC1c1ccc(O)cc1 (stereo not shown) [6-Chloro-4′,7-dihydroxyisoflavan-4-one] |  |  | IC50 [3]: 32.1 µM
CC(C)Cc1ccc(C(C)C(=O)O)cc1 (stereo not shown) [ibuprofen] | did not influence |  | 
CC(=O)Oc1ccccc1C(=O)O [aspirin] | did not influence |  | 
Cc1c(O)ccc2c1OCC(c1ccc(O)cc1)=C2 [Cpd. 13, 4′,7-Dihydroxy-8-methylisoflav-3-ene] |  | 190 to 193 °C | contractile response (logEC50) of the aortic ring to noradrenaline [4]: significantly inhibited; strength of the contractile response (Emax) [4]: reduced; ability to scavenge free radicals ([5]; DPPH): limited activity; EC50 ([5]; DPPH 0.1 mM, 20 minutes, read-out: Free radical scavenging ability EC50): 94 µM
CN1C(C(=O)Nc2ccccn2)=C(O)c2ccccc2S1(=O)=O [piroxicam] | did not influence |  | 
